Test results: ChEMBL document CHEMBL4507324 (2021)

Legend:
Conditions in all cases: Compound concentration 100.0 nM
[1] = test system: Receptor-type tyrosine-protein kinase FLT3 (Homo sapiens), P36888 [K663Q]
[2] = test system: Phosphatidylinositol 4,5-bisphosphate 3-kinase catalytic subunit alpha isoform (Homo sapiens), P42336 [Q546K]
[3] = target: Tyrosine-protein kinase Fyn (Homo sapiens) (UniProt P06241)
[4] = target: Serine/threonine-protein kinase Chk2 (Homo sapiens, UniProt O96017)
[5] = target: Cyclin-dependent kinase 4 (Homo sapiens) (UniProt P11802)
[6] = target: Ephrin type-B receptor 1 (Homo sapiens) (UniProt P54762)
[7] = target: Casein kinase I isoform epsilon (Homo sapiens) (UniProt P49674)
[8] = target: Phosphatidylinositol 4-phosphate 5-kinase type-1 gamma (Homo sapiens) (UniProt O60331)
[9] = target: Citron Rho-interacting kinase (Homo sapiens) (UniProt O14578)
[10] = target: MAP/microtubule affinity-regulating kinase 3 (Homo sapiens) (UniProt P27448)
[11] = target: Tyrosine-protein kinase Lck (Homo sapiens) (UniProt P06239)
[12] = target: Mitogen-activated protein kinase kinase kinase 15 (Homo sapiens) (UniProt Q6ZN16)
[13] = test system: Tyrosine-protein kinase ABL1 (Homo sapiens), P00519 [F317I]
[14] = target: Tyrosine-protein kinase Fgr (Homo sapiens) (UniProt P09769)
[15] = target: Cyclin-dependent kinase 8 (Homo sapiens) (UniProt P49336)
[16] = target: Serine/threonine-protein kinase 17A (Homo sapiens) (UniProt Q9UEE5)
[17] = target: Receptor-interacting serine/threonine-protein kinase 4 (Homo sapiens) (UniProt P57078)
[18] = target: Tyrosine-protein kinase HCK (Homo sapiens) (UniProt P08631)
[19] = target: Serine/threonine-protein kinase Nek2 (Homo sapiens) (UniProt P51955)
[20] = target: Serine/threonine-protein kinase SIK2 (Homo sapiens) (UniProt Q9H0K1)
[21] = target: Serine/threonine-protein kinase/endoribonuclease IRE1 (Homo sapiens) (UniProt O75460)
[22] = target: Ribosomal protein S6 kinase alpha-4 (Homo sapiens) (UniProt O75676)
[23] = test system: Proto-oncogene tyrosine-protein kinase receptor Ret (Homo sapiens), P07949 [M918T]
[24] = target: Dual specificity mitogen-activated protein kinase kinase 4 (Homo sapiens) (UniProt P45985)
[25] = target: Serine/threonine-protein kinase BRSK1 (Homo sapiens) (UniProt Q8TDC3)
[26] = target: Mitogen-activated protein kinase 12 (Homo sapiens) (UniProt P53778)
[27] = target: AP2-associated protein kinase 1 (Homo sapiens) (UniProt Q2M2I8)
[28] = target: NUAK family SNF1-like kinase 2 (Homo sapiens) (UniProt Q9H093)
[29] = test system: Fibroblast growth factor receptor 3 (Homo sapiens), P22607 [G697C]
[30] = target: Inhibitor of nuclear factor kappa-B kinase subunit beta (Homo sapiens) (UniProt O14920)
[31] = target: Myosin light chain kinase (Homo sapiens) (UniProt Q32MK0)
[32] = target: Activin receptor type-1-like (Homo sapiens) (UniProt P37023)
[33] = target: Calcium/calmodulin-dependent protein kinase kinase 2 (Homo sapiens) (UniProt Q96RR4)
[34] = target: Serine/threonine-protein kinase PLK2 (Homo sapiens) (UniProt Q9NYY3)
[35] = target: Ephrin type-A receptor 7 (Homo sapiens) (UniProt Q15375)
[36] = target: Mitogen-activated protein kinase 4 (Homo sapiens) (UniProt P31152)
[37] = target: Non-receptor tyrosine-protein kinase TNK1 (Homo sapiens) (UniProt Q13470)
[38] = target: Protein kinase C epsilon type (Homo sapiens) (UniProt Q02156)
[39] = target: Serine/threonine-protein kinase 17B (Homo sapiens) (UniProt O94768)
[40] = target: Protein-tyrosine kinase 2-beta (Homo sapiens) (UniProt Q14289)
[41] = target: Mitogen-activated protein kinase kinase kinase 9 (Homo sapiens) (UniProt P80192)
[42] = target: Dual specificity protein kinase CLK1 (Homo sapiens) (UniProt P49759)
[43] = target: Activin receptor type-2A (Homo sapiens) (UniProt P27037)
[44] = target: Atypical kinase COQ8B, mitochondrial (Homo sapiens) (UniProt Q96D53)
[45] = target: Ribosomal protein S6 kinase alpha-2 (Homo sapiens) (UniProt Q15349)

Chain of Tyrosine-protein kinase ABL1 (Homo sapiens), P00519 [F317I] (P00519 whole entry F317I): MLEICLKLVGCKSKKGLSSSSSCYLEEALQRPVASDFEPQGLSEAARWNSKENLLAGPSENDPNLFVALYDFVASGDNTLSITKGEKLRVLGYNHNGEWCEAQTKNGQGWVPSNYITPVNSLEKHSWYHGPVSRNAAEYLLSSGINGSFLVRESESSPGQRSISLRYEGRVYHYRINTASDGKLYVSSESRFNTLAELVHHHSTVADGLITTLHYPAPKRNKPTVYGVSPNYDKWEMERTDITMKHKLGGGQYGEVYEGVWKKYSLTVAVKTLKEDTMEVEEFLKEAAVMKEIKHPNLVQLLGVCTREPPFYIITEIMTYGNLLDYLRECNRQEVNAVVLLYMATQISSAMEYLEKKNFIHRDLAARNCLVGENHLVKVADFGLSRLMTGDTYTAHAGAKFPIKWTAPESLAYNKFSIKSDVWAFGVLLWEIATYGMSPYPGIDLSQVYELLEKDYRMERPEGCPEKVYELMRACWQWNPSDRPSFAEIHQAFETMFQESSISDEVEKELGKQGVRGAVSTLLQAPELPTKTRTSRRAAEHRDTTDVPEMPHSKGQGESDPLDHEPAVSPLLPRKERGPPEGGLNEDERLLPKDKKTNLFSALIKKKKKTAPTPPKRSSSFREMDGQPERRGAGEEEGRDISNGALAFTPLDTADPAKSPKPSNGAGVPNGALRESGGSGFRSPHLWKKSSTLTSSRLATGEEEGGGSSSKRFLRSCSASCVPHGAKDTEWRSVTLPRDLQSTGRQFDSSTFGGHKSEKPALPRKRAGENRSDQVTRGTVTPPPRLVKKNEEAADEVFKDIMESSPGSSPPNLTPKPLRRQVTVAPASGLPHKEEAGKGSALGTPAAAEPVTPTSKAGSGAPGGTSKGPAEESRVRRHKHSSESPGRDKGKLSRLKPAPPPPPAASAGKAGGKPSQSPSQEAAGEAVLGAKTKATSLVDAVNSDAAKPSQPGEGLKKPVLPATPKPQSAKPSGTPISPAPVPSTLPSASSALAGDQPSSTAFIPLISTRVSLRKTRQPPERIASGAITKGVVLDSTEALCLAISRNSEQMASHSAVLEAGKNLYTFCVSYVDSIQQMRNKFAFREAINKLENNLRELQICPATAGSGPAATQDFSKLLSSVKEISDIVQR
Chain of Dual specificity mitogen-activated protein kinase kinase 4 (Homo sapiens) (P45985 whole entry): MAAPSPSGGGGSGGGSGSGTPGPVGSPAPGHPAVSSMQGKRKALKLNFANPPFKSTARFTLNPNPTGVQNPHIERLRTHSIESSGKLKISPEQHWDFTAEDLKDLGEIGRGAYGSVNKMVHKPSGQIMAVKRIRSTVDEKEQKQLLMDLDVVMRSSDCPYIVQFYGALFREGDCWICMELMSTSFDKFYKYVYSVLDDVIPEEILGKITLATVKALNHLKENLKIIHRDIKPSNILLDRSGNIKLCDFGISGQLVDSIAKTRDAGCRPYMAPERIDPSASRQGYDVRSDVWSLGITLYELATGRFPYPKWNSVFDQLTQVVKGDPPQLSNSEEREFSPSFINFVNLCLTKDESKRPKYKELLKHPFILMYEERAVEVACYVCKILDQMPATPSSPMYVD
Chain of Mitogen-activated protein kinase 4 (Homo sapiens) (P31152 whole entry): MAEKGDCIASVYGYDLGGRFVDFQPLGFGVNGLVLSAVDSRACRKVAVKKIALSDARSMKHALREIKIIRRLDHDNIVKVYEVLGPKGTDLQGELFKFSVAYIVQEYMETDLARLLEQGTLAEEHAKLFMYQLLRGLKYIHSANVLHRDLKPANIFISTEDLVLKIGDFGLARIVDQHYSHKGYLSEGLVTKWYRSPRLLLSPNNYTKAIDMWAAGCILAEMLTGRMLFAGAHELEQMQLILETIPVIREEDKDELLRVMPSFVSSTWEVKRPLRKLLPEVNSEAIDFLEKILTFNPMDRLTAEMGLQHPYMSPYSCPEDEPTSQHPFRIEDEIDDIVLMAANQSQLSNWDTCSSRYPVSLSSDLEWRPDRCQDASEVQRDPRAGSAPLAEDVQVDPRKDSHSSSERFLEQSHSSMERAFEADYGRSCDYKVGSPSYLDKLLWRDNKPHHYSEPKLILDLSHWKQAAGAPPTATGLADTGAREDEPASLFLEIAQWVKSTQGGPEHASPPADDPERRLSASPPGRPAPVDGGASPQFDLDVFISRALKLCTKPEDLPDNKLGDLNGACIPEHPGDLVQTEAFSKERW
Chain of Non-receptor tyrosine-protein kinase TNK1 (Homo sapiens) (Q13470 whole entry): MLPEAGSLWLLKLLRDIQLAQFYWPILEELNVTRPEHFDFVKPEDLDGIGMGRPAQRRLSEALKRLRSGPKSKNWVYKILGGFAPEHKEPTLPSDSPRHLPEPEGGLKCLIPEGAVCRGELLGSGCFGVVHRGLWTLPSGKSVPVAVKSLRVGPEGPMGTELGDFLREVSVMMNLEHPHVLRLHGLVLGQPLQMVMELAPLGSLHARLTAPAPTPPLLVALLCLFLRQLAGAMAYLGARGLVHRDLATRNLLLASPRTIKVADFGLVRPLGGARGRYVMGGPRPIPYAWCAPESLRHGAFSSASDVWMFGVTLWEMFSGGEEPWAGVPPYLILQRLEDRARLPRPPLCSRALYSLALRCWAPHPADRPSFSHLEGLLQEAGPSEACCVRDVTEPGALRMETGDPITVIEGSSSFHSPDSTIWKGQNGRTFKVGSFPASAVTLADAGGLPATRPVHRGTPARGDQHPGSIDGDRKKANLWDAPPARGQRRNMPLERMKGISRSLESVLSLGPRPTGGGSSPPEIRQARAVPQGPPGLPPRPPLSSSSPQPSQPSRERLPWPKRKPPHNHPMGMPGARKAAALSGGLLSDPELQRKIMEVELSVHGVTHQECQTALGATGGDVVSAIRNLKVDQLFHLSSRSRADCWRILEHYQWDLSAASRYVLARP
Chain of Cyclin-dependent kinase 4 (Homo sapiens) (P11802 whole entry): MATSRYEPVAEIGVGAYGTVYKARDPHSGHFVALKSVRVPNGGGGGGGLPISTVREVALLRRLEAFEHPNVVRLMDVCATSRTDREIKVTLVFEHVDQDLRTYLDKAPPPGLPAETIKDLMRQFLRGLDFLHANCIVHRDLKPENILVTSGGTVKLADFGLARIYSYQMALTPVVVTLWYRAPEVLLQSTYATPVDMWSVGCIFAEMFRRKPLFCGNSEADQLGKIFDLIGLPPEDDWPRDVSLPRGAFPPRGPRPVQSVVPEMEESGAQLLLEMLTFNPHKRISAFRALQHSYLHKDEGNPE
Chain of Mitogen-activated protein kinase kinase kinase 9 (Homo sapiens) (P80192 whole entry, looked up): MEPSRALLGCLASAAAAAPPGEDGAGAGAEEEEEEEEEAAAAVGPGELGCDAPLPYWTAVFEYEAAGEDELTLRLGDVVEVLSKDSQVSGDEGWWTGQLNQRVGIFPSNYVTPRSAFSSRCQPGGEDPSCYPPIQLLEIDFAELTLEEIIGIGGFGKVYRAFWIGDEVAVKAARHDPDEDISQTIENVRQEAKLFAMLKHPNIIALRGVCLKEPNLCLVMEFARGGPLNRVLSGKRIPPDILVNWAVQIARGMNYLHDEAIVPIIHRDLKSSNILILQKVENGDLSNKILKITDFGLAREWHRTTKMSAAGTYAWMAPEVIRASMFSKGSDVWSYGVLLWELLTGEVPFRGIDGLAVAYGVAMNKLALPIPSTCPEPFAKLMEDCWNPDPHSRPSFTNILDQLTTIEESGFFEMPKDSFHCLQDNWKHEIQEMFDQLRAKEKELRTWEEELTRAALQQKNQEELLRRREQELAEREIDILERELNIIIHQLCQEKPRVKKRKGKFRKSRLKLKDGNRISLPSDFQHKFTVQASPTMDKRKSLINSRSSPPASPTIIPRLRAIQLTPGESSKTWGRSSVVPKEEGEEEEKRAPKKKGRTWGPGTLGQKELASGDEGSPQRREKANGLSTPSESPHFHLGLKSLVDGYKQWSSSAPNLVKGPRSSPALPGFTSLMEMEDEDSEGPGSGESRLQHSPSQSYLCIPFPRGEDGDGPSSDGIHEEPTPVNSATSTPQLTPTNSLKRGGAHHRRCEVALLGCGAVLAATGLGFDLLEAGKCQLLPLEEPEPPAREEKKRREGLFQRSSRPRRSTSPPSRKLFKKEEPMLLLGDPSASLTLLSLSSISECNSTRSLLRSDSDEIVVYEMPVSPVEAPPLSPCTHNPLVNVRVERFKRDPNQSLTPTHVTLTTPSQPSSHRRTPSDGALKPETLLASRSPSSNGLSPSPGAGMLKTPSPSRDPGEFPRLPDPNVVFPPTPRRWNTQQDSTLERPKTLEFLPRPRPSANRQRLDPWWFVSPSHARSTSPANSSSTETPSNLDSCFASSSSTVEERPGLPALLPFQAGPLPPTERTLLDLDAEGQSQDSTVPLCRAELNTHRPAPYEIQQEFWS
Chain of Serine/threonine-protein kinase Chk2 (O96017 whole entry): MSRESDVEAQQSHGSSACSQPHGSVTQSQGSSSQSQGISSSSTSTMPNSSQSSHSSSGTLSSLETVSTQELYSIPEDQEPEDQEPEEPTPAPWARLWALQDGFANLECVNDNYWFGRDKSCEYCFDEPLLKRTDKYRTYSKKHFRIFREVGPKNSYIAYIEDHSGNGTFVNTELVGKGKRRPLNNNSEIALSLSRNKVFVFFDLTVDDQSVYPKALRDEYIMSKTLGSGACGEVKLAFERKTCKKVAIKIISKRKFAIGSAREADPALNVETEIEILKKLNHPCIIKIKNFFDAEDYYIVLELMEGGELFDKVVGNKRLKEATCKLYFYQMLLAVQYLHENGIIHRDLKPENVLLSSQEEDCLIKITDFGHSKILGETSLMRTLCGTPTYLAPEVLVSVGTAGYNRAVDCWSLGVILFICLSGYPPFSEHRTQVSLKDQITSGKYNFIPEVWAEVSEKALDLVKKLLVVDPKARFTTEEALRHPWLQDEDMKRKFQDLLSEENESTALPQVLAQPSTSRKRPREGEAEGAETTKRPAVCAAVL

CS(=O)(=O)N1CCCC(NC(=O)[C@H](CCC2CCCCC2)NC(=O)c2ccc(CNc3ncnc4c3nnn4-c3ccccc3)cc2)C1 (stereo not given in full) [SR-301]
residual activity [1]: 94%
residual activity [2]: 60%
residual activity [3]: 56%
residual activity [4]: 100%
residual activity [5]: 100%
residual activity [6]: 100%
residual activity [7]: 100%
residual activity [8]: 85%
residual activity [9]: 98%
residual activity [10]: 100%
residual activity [11]: 100%
residual activity [12]: 74%
residual activity [13]: 88%
residual activity [14]: 88%
residual activity [15]: 100%
residual activity [16]: 100%
residual activity [17]: 100%
residual activity [18]: 100%
residual activity [19]: 100%
residual activity [20]: 86%
residual activity [21]: 100%
residual activity [22]: 91%
residual activity [23]: 93%
residual activity [24]: 100%
residual activity [25]: 100%
residual activity [26]: 100%
residual activity [27]: 90%
residual activity [28]: 100%
residual activity [29]: 83%
residual activity [30]: 100%
residual activity [31]: 100%
residual activity [32]: 97%
residual activity [33]: 78%
residual activity [34]: 99%
residual activity [35]: 98%
residual activity [36]: 96%
residual activity [37]: 96%
residual activity [38]: 63%
residual activity [39]: 100%
residual activity [40]: 94%
residual activity [41]: 90%
residual activity [42]: 87%
residual activity [43]: 68%
residual activity [44]: 100%
residual activity [45]: 100%

CS(=O)(=O)N1CCCC(NC(=O)[C@H](CCC2CCCCC2)NC(=O)c2ccc(CNC(=O)c3cnc4ccccn34)cc2)C1 (stereo not given in full) [SR-302]
residual activity [1]: 100%
residual activity [2]: 90%
residual activity [3]: 80%
residual activity [4]: 37%
residual activity [5]: 100%
residual activity [6]: 89%
residual activity [7]: 93%
residual activity [8]: 100%
residual activity [9]: 100%
residual activity [10]: 74%
residual activity [11]: 83%
residual activity [12]: 100%
residual activity [13]: 80%
residual activity [14]: 87%
residual activity [15]: 42%
residual activity [16]: 100%
residual activity [17]: 92%
residual activity [18]: 100%
residual activity [19]: 86%
residual activity [20]: 100%
residual activity [21]: 100%
residual activity [22]: 100%
residual activity [23]: 93%
residual activity [24]: 100%
residual activity [25]: 72%
residual activity [26]: 100%
residual activity [27]: 92%
residual activity [28]: 100%
residual activity [29]: 86%
residual activity [30]: 100%
residual activity [31]: 88%
residual activity [32]: 96%
residual activity [33]: 88%
residual activity [34]: 100%
residual activity [35]: 96%
residual activity [36]: 100%
residual activity [37]: 100%
residual activity [38]: 83%
residual activity [39]: 83%
residual activity [40]: 100%
residual activity [41]: 65%
residual activity [42]: 86%
residual activity [43]: 100%
residual activity [44]: 100%
residual activity [45]: 94%
